Laboratory results reported in article PMC6381024, “Probing Anti-inflammatory Properties Independent of NF-κB Through Conformational Constraint of Peptide-Based Interleukin-1 Receptor Biased Ligands” (Frontiers in Chemistry, 2019).

Columns and labels:
[1] = tested on: JNK; assay: IL-1β-induced JNK phosphorylation, Western blot in RAW Blue cells; format: cell-based; set-up: key to Western Blot JNK (heatmap grade of inhibition): 0: No effect; No effect 01234 Maximum inhibition/efficacy; No effect 01234 Maximum inhibition/efficacy; No effect 01234 Maximum inhibition/efficacy; 4: Maximum inhibition/efficacy; conditions: for Western Blot JNK (heatmap grade of inhibition): RAW Blue cells, peptide 10^-6 M or Kineret 1.0 mg/mL 30 min, then IL-1β 100 ng/mL 15 min
Description: (§1) RAW Blue cells (Invivogen) were grown under standard conditions (37°C, 5% CO2) and maintained under passage number 15. Cells were equilibrated with 1, 5, or 6 (10^−6M) or Kineret (1.0 mg/mL) for 30 min, after which time they were exposed to IL-1β (100 ng/mL) for 15 min. Cells were harvested and lysed on ice for 30 min using a radioimmunoprecipitation assay buffer (Cell Signaling) supplemented with 1 mM phenylmethylsulfonyl fluoride (PMSF) and cOmplete™ EDTA-free protease inhibitor cocktail (Roche, Mannheim, Germany, prepared according to the manufacturer's instructions). Protein concentrations were determined using a Bradford protein assay (Bio-Rad) on 96-well plates with a microplate reader (EnVision Multilabel reader) measuring OD at […]. Bovine serum albumin serial dilutions were used to generate a standard curve. Lysates were then mixed with 4X reducing sample buffer (Bio-Rad).
(§2) Lysates were loaded (30 μg protein per well) in a 5% acrylamide stacking gel, and samples were electrophoresed in a 12% acrylamide resolving gel for 1.5 h at 120 V, followed by a 1 h transfer onto polyvinylidene difluoride (PDVF) membranes at 100 V. Membranes were blocked and incubated with 1:1,000 dilution of primary antibody and 1:20,000 dilution of secondary antibodies according to the manufacturer's instructions. Antibodies used were for phospho-p38 MAPK (Cell Signaling, #9211), p38 MAPK (Cell Signaling, #9212), SAPK/JNK (Cell Signaling, #9252), phospho-SAPK/JNK (Cell Signaling, #9251), ROCK2 (Thermo Fisher Scientific PA5-21131), phospho-ROCK2 (Thermo Fisher Scientific PA5-34895), and goat anti-rabbit conjugated to horseradish peroxidase (Abcam, ab6721). Membranes were imaged using an Amersham Imager 600 (GE Healthcare) using Clarity Western ECL Substrate (Bio-Rad). The intensity of protein bands was quantified using ImageJ and standardized using total (phosphorylated + non-phosphorylated) protein content. Data are representative of three independent experiments.
(§3) Figure 7 The effects of peptides 1, 5, and 6 on IL-1β-induced phosphorylation of JNK, ROCK2, and p38. Graphical representations of band density analysis of Western Blots, sorted into columns based on protein of interest (JNK, ROCK2, or p38) and rows by peptide configuration [(3R-) or (3S)]. RAW-blue cells were pretreated with peptides 1, 5, 6, Kineret, or vehicle for 30 min and then stimulated with IL-1β for 15 min. Images of representative Western Blots can be found in the Supplementary Figure 1. Results shown are the average of 3 independent experiments: ^*p < 0.05, ^**p < 0.01, ^***p < 0.001, ^****p < 0.0001 compared to group treated only with IL-1β. Treatment groups that are not labeled with asterisks are statistically non-significant compared to group treated only with IL-1β.

[2] = tested on: ROCK2; assay: IL-1β-induced ROCK2 phosphorylation, Western blot in RAW Blue cells; format: cell-based; set-up: key to Western Blot ROCK2 (heatmap grade of inhibition): 0: No effect; No effect 01234 Maximum inhibition/efficacy; No effect 01234 Maximum inhibition/efficacy; No effect 01234 Maximum inhibition/efficacy; 4: Maximum inhibition/efficacy; conditions: for Western Blot ROCK2 (heatmap grade of inhibition): RAW Blue cells, peptide 10^-6 M or Kineret 1.0 mg/mL 30 min, then IL-1β 100 ng/mL 15 min
Description: as §1, §2, §3

[3] = tested on: IL-6; assay: qPCR of IL-1β-induced IL-6 expression in HEK-Blue IL-33/IL-1β cells; format: cell-based, human; set-up: key to qPCR IL-6 (heatmap grade of inhibition): 0: No effect; No effect 01234 Maximum inhibition/efficacy; No effect 01234 Maximum inhibition/efficacy; No effect 01234 Maximum inhibition/efficacy; 4: Maximum inhibition/efficacy; conditions: for qPCR IL-6 (heatmap grade of inhibition): HEK-Blue cells, peptide 10^-6 M or Kineret 1.0 mg/mL 30 min, then IL-1β 100 ng/mL 4 h (legend: overnight); for Suppression of IL-6 transcription: HEK blue cells, 10^-6 M pre-treatment, IL-1β stimulation
Description: HEK-Blue IL-33/IL-1β cells were purchased from InvivoGen (San Diego, CA) and used at passages under 15. HEK-Blue cells were cultured in DMEM growth medium supplemented with 10% serum, 50 U/mL penicillin, […] streptomycin, […] zeocin, and […] hygromycin. Cells were grown in regular conditions (37°C, 5% CO2). Cells were serum starved overnight and treated with 100 ng/mL IL-1β for 4 h. Cells were pre-incubated for 30 min with peptides 1, 5, or 6 (10^−6M) or Kineret (1.0 mg/mL) prior to the experiments to reach equilibrium (n = 4 each treatment). Cells were harvested and incubated for 5 min in RIBOzol (AMRESCO). RNA was extracted according to manufacturer's protocol and RNA concentration and integrity were measured with a NanoDrop 1,000 spectrophotometer. A total of 500 ng RNA was used to synthetize cDNA using iScript Reverse Transcription SuperMix (Bio-Rad, Hercules, CA). Quantitative gene expression analysis was performed on Stratagene MXPro3000 (Stratagene) with SYBR Green Master Mix (Bio-Rad). Gene expression levels were normalized to 18S universal primer (Ambion Life Technology, Burlington ON, Canada). Genes analyzed include IL1β, IL6, and PTGHS2 [Prostaglandin H synthetase 2 or cyclooxygenase-2 (COX-2)]. Data are representative of 3 experiments (each with n = 4 per treatment group).
Figure 8 The effects of peptides 1, 5, and 6 on the expression of pro-inflammatory genes. HEK-Blue cells were pre-treated with peptides 1, 5, and 6 as above and stimulated with IL-1β overnight. qPCR was performed on cell lysates using 18S rRNA as internal control. Graphs are sorted in columns by gene of interest (COX-2, IL-1β, or IL-6) and rows by peptide configuration [(3R) or (3S)]. Results are representative of an average of 3 independent experiments (each with n = 4 per treatment group) and are expressed as a fold-change of the non-stimulated control: ^*p < 0.05, ^**p < 0.01, ^***p < 0.001, ^****p < 0.0001 compared to group treated only with IL-1β. Treatment groups that are not labeled with asterisks are statistically non-significant compared to group treated only with IL-1β.

[4] = RAW-blue cells, 10^-6 M, 30 min, then IL-1β 15 min

Substance | Western Blot JNK (heatmap grade of inhibition) [1] | Western Blot ROCK2 (heatmap grade of inhibition) [2] | qPCR IL-6 (heatmap grade of inhibition) [3] | Suppression of IL-6 transcription [3] | Inhibition of IL-1β-induced JNK phosphorylation [1, 4] | Inhibition of IL-1β-induced ROCK2 phosphorylation [2, 4]
Kineret: FDA-approved recombinant IL-1 receptor antagonist | 4 | 4 | 4 | – | – | –
H-D-Arg-D-Tyr-(R)-Agl-(S)-Val-D-Glu-D-Leu-D-Ala-NH2 [[(3R)-Agl^3-(S)-Val^4]-1] | 0 | 2 | 1 | ability to suppress the transcription of all three genes was lost | – | –
H-D-Arg-D-Tyr-D-Thr-D-Val-D-Glu-D-Leu-D-Ala-NH2 [Peptide 1] | 4 | 4 | 4 | strong suppression of transcription of all three genes | inhibited the effects of all three kinases | inhibited the effects of all three kinases
H-D-Arg-D-Tyr-(3R,4S)-Hgl-(S)-Val-D-Glu-D-Leu-D-Ala-NH2 [[(3R,4S)-Hgl^3-(S)-Val^4]-1] | 2 | 2 | 2 | – | – | –
H-D-Arg-D-Tyr-(3R,4S)-Hgl-D-Val-D-Glu-D-Leu-D-Ala-NH2 [[(3R,4S)-Hgl^3]-1] | 4 | 4 | 4 | – | – | –
H-D-Arg-D-Tyr-(3R,4R)-Hgl-(S)-Val-D-Glu-D-Leu-D-Ala-NH2 [[(3R,4R)-Hgl^3-(S)-Val^4]-1] | 1 | 4 | 4 | – | – | –
H-D-Arg-D-Tyr-(3S,4R)-Hgl-D-Val-D-Glu-D-Leu-D-Ala-NH2 [[(3S,4R)-Hgl^3]-1] | 3 | 3 | 4 | – | – | –
H-D-Arg-D-Tyr-(R)-Agl-D-Val-D-Glu-D-Leu-D-Ala-NH2 [[(3R)-Agl^3]-1] | 4 | 0 | 3 | – | – | –
H-D-Arg-D-Tyr-(3R,4R)-Hgl-D-Val-D-Glu-D-Leu-D-Ala-NH2 [[(3R,4R)-Hgl^3]-1] | 0 | 4 | 4 | – | – | –
H-D-Arg-D-Tyr-(S)-Agl-(S)-Val-D-Glu-D-Leu-D-Ala-NH2 [[(3S)-Agl^3-(S)-Val^4]-1] | 0 | 3 | 1 | ability to suppress the transcription of all three genes was lost | – | –
H-D-Arg-D-Tyr-(S)-Agl-D-Val-D-Glu-D-Leu-D-Ala-NH2 [[(3S)-Agl^3]-1] | 4 | 0 | 2 | – | – | –
